This is an account of results in ChEMBL document CHEMBL1201862, “PubChem BioAssay data set” (2004).

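Cells were grown in 96-well plates and exposed to each compound for 48 hours at five concentrations; endpoints were interpolated linearly between bracketing concentrations, or set to the highest concentration if not reached. Here, GI50 denotes the concentration required for 50% inhibition of growth.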 The source made the active and inactive calls. Cut-off read from the data, not from the text of the source: active = GI50 up to about 1.1 µM and inactive = higher. Some results are limits rather than exact numbers.

Common to all, as to experiment: DTP human tumour cell line panel, 48 h
Experiment [1] concerns A498.
For experiment [2], the system named is HCC 2998.
Experiment [3] concerns HL-60.
Experiment [4] has as its system HOP-92.
The test system of experiment [5] is LOX IMVI.
Experiment [6] concerns M14.
Experiment [7] relates to NCI-H460.
Experiment [8] concerns NCI-H522.
Experiment [9] has as its system OVCAR-3.
Experiment [10] concerns OVCAR-4.
In experiment [11] the test system is RXF 393.
The subject of experiment [12] is SF-295.
Experiment [13] concerns SK-MEL-5.
Experiment [14] relates to SK-OV-3.
For experiment [15], the system named is SW-620.
For experiment [16], the system named is UACC-257.
Experiment [17] deals with RPMI-8226.

The term GI50 denotes the concentration at which growth is held to half of that of the control. Consider `Cc1cc([N+](=O)[O-])ccc1Sc1c2ccccc2nc2cc(Cl)ccc12`, for which the GI50 was > 100 µM (inactive) in experiment [1]; > 100 µM (inactive) in experiment [2]; 5.78 µM (inactive) in [3]; 23.4 µM (inactive) in experiment [4]; 24.9 µM (inactive) in experiment [5]; 40.8 µM (inactive) in experiment [6]. Moreover, the GI50 in experiment [7] is 36.6 µM (inactive); in experiment [8], 27.7 µM (inactive); in experiment [9], 28.3 µM (inactive); in experiment [10], 41.4 µM (inactive); in experiment [11], 84.5 µM (inactive); in experiment [12] it was 45.8 µM (inactive). The GI50 was 39.4 µM (inactive) in [13], 47.2 µM (inactive) in experiment [14], 31.2 µM (inactive) in experiment [15] and 73.6 µM (inactive) in experiment [16].
As for `COc1ccccc1C12OC(=O)C1(C)Oc1ccccc1C2=O` (centres undefined), the GI50 in experiment [1] is > 100 µM (inactive); in experiment [2] it was > 100 µM (inactive); in [3], > 100 µM (inactive); in experiment [4], 65 µM (inactive); in [5], 26.8 µM (inactive); in experiment [6], > 100 µM (inactive). Also, the GI50 in experiment [7], in experiment [9], in experiment [10], in [17], in [11] and in [12] was > 100 µM (inactive) in each case. In addition, the GI50 in experiment [13], in experiment [14], in experiment [15] and in experiment [16] was > 100 µM (inactive) in each case.
Take `C[C@@]1(O)CC[C@]2(C)C3CCCC3[C@H]12` (some centres undefined): the GI50 in [1], in experiment [2], in [3], in experiment [4], in experiment [5] and in experiment [6] was > 100 µM (inactive) each time. Moreover, the GI50 in [7], in experiment [8], in experiment [9], in experiment [10], in [17] and in experiment [11] was > 100 µM (inactive) in each case. The GI50 in experiment [12], in experiment [13], in [14], in [15] and in experiment [16] was > 100 µM (inactive) throughout.
As to `O=C(NC1C2CC3CC(C2)CC1C3)/C(Cl)=C1/Sc2ccccc2NC1=O` (centres undefined), the GI50 in experiment [1] is > 100 µM (inactive); in experiment [2], > 80 µM (inactive); in experiment [3], 62.2 µM (inactive); in experiment [4], > 76.4 µM (inactive); in experiment [5] it was 99.3 µM (inactive); in experiment [6], > 100 µM (inactive). The GI50 is > 89.9 µM (inactive) in [7]; > 100 µM (inactive) in experiment [8]; > 100 µM (inactive) in [9]; > 100 µM (inactive) in [10]; > 100 µM (inactive) in experiment [11]; > 100 µM (inactive) in [12]. In addition, the GI50 in experiment [13], in experiment [15] and in experiment [16] was > 100 µM (inactive) throughout.
Turning to `N#Cc1c2ccccc2c(Cc2ccc3c(c2)OCCOCCOCCOCCOCCO3)c2ccccc12`, the GI50 was 13.3 µM (inactive) in [1]; 11.8 µM (inactive) in [2]; 1.85 µM (inactive) in experiment [3]; 3.99 µM (inactive) in [4]; 6.04 µM (inactive) in [5]; 5.37 µM (inactive) in [6]. Moreover, the GI50 is 6.7 µM (inactive) in [7]; 10.8 µM (inactive) in experiment [8]; 4.23 µM (inactive) in [9]; 3 µM (inactive) in experiment [10]; 3.11 µM (inactive) in experiment [17]; 2.32 µM (inactive) in experiment [11]. Moreover, the GI50 in [12] is 8.69 µM (inactive); in [13] it was 4.35 µM (inactive); in [14] it was 13.6 µM (inactive); in [15], 6.71 µM (inactive); in experiment [16], 9.27 µM (inactive).
In the case of `CC(=O)OC1OC2C(NC(=O)OC(C)(C)C)C1CC2(OCc1ccccc1)OCc1ccccc1` (centres undefined), the GI50 in [1] is 19.4 µM (inactive); in experiment [2], 21.6 µM (inactive); in experiment [3], 12.8 µM (inactive); in experiment [4], 12.5 µM (inactive); in experiment [5] it was > 10 µM (inactive); in [6], 20.5 µM (inactive). Moreover, the GI50 is 34.8 µM (inactive) in experiment [7]; 15.1 µM (inactive) in [8]; 16.5 µM (inactive) in [9]; 11.6 µM (inactive) in experiment [17]; 14.2 µM (inactive) in experiment [11]; 35.2 µM (inactive) in experiment [12]. Also, the GI50 in experiment [13] was 17.6 µM (inactive); in experiment [14] it was 28.3 µM (inactive); in [15], 32.8 µM (inactive); in experiment [16], 19.1 µM (inactive).
For the molecule `COc1cc([C@@H]2c3cc4c(cc3[C@@H](NC(=O)c3ccc([N+](=O)[O-])cc3)C3COC(=O)[C@@H]32)OCO4)cc(OC)c1O` (some centres undefined), the GI50 in [1] was 1.28 µM (inactive); in experiment [2], 1.22 µM (inactive); in experiment [3], 0.0432 µM (active); in experiment [4] it was 0.7 µM (active); in [5], 0.318 µM (active); in experiment [6], 0.653 µM (active). The GI50 in experiment [7] was < 0.01 µM (active); in experiment [8], 0.508 µM (active); in experiment [9], 1.76 µM (inactive); in experiment [10] it was 8.04 µM (inactive); in experiment [17] it was 0.256 µM (active); in experiment [11], 2.55 µM (inactive). Besides, the GI50 in experiment [12] is 0.249 µM (active); in [13], 0.361 µM (active); in [14], 0.334 µM (active); in experiment [15] it was 0.147 µM (active); in [16], 3.16 µM (inactive).
As for `CC1=C(C(=O)CC(=O)C(=O)Nc2ccccc2C)Sc2ccccc2N1`, the GI50 in experiment [1] was > 100 µM (inactive); in experiment [2], > 74.3 µM (inactive); in experiment [3], > 60.5 µM (inactive); in experiment [4] it was > 67.9 µM (inactive); in experiment [5], > 42.4 µM (inactive); in experiment [6], > 100 µM (inactive). Besides, the GI50 was > 40.4 µM (inactive) in experiment [7]; > 55 µM (inactive) in experiment [8]; > 100 µM (inactive) in [9]; > 100 µM (inactive) in experiment [10]; > 45 µM (inactive) in experiment [17]; > 57.4 µM (inactive) in [11]. Moreover, the GI50 was > 100 µM (inactive) in [12]; > 100 µM (inactive) in experiment [13]; > 100 µM (inactive) in experiment [14]; > 39.3 µM (inactive) in [15]; > 100 µM (inactive) in [16].
Regarding `COc1cc(/C=C/c2ccc(OC)c(O)c2)cc(OC)c1`, the GI50 in experiment [1] is 29.4 µM (inactive); in experiment [2] it was 20.3 µM (inactive); in [3] it was 1.75 µM (inactive); in [4], 7.71 µM (inactive); in [5], 12.2 µM (inactive); in [6], 3.08 µM (inactive). Further, the GI50 in [7] is 3.65 µM (inactive); in experiment [8] it was 1.69 µM (inactive); in experiment [9], 2.16 µM (inactive); in experiment [10], 14.3 µM (inactive); in experiment [17], 2.19 µM (inactive); in [11], 1.25 µM (inactive). In addition, the GI50 was 1.96 µM (inactive) in experiment [12]; 4.18 µM (inactive) in [13]; 36.1 µM (inactive) in [14]; 3.82 µM (inactive) in experiment [15]; 5.86 µM (inactive) in experiment [16].
`FC(F)(F)c1ccc(C2SCc3nc4ccccc4n32)cc1` (centres undefined): the GI50 in experiment [1] was 81.8 µM (inactive); in experiment [2], > 100 µM (inactive); in experiment [3], 3.13 µM (inactive); in experiment [4] it was 1.11 µM (active); in experiment [8], > 10 µM (inactive); in [9], > 10 µM (inactive). The GI50 in [17] was 12.4 µM (inactive); in experiment [11] it was 97.5 µM (inactive); in [12] it was > 100 µM (inactive); in [13] it was 11.5 µM (inactive); in [14], 18.2 µM (inactive); in experiment [15], > 100 µM (inactive). In addition, the GI50 in [16] is 6.56 µM (inactive).
Turning to `O=[N+]([O-])c1ccc2nc(/C(=N/Nc3ccccc3)C(O)c3ccc(C(O)/C(=N\Nc4ccccc4)c4nc5ccc([N+](=O)[O-])cc5nc4O)cc3)cnc2c1` (centres undefined), the GI50 in experiment [1] was 32.1 µM (inactive); in experiment [2] it was 29.1 µM (inactive); in experiment [3], 19.3 µM (inactive); in experiment [4], > 100 µM (inactive); in experiment [6] it was 40.3 µM (inactive); in [7], 18.1 µM (inactive). The GI50 in experiment [8] is 5.64 µM (inactive); in experiment [9], > 100 µM (inactive); in experiment [10], > 100 µM (inactive); in [17], 19.4 µM (inactive); in [11], > 100 µM (inactive); in experiment [12], > 100 µM (inactive). The GI50 is 24.8 µM (inactive) in experiment [13], > 100 µM (inactive) in experiment [14], > 100 µM (inactive) in experiment [15] and > 100 µM (inactive) in experiment [16].
With `Oc1ccc(Br)cc1/C=N/c1ccc(Oc2ccc(/N=C/c3cc(Br)ccc3O)cc2)cc1`, the GI50 in experiment [1], in experiment [2], in [3], in experiment [4], in experiment [5] and in experiment [6] was > 19.6 µM (inactive) throughout. For the same molecule, the GI50 in experiment [7], in experiment [8], in experiment [9], in experiment [10], in experiment [17] and in [11] was > 19.6 µM (inactive) each time. Also, the GI50 in experiment [12], in experiment [13], in experiment [14], in experiment [15] and in experiment [16] was > 19.6 µM (inactive) throughout.
